Experimental data published in patent US11578077B2, “Spiro-oxazolones” (Hoffmann-La Roche Inc., priority 2013, dated 2023).

target: human V1a receptor (Homo sapiens (Human), UniProt P37288); assay: human V1a receptor binding studies (3H-Vasopressin, SPA beads); settings: membranes of HEK293 cells transiently transfected with human V1a receptor, Ki by Cheng-Prusoff
Procedure: The human V1a receptor was cloned by RT-PCR from total human liver RNA. The coding sequence was subcloned in an expression vector after sequencing to confirm the identity of the amplified sequence. […] Cell membranes were prepared from HEK293 cells transiently transfected with the expression vector and grown in 20 liter fermenters with the following protocol.
50 g of cells are re-suspended in 30 ml freshly prepared ice cold Lysis buffer ([…] HEPES. 1 mM EDTA, 10 mM MgCl2 adjusted to pH=7.4+complete cocktail of protease inhibitor (Roche Diagnostics)). Homogenized with Polytron for 1 min and sonicated on ice for 2×2 minutes at 80% intensity (Vibracell sonicator). The preparation is centrifuged 20 min at 500 g at 4° C., the pellet is discarded and the supernatant centrifuged 1 hour at 43'000 g at 4° C. (19'000 rpm). The pellet is re-suspended in 12.5 ml Lysis buffer+12.5 ml Sucrose 20% and homogenized using a Polytron for 1-2 min. The protein concentration is determined by the Bradford method and aliquots are stored at −80° C. until use. For binding studies 60 mg Yttrium silicate SPA beads (Amersham) are mixed with an aliquot of membrane in binding buffer (50 mM Tris, 120 mM NaCl, 5 mM KCl, 2 mM CaCl2, 10 mM MgCl) for 15 minutes with mixing. 50 μl of bead/membrane mixture is then added to each well of a 96 well plate, followed by […] of 4 nM 3H-Vasopressin (American Radiolabeled Chemicals). For total binding measurement 100 μl of binding buffer are added to the respective wells, for non-specific binding 100 μl of […] cold vasopressin and for compound testing 100 μl of a serial dilution of each compound in 2% DMSO. The plate is incubated 1 h at room temperature, centrifuged 1 min at 1000 g and counted on a Packard Top-Count. Non-specific binding counts are subtracted from each well and data is normalized to the maximum specific binding set at 100%. To calculate an IC 50 the curve is fitted using a non-linear regression model (XLfit) and the Ki is calculated using the Cheng-Prussoff equation.

Sequence of human V1a receptor (P37288 whole entry): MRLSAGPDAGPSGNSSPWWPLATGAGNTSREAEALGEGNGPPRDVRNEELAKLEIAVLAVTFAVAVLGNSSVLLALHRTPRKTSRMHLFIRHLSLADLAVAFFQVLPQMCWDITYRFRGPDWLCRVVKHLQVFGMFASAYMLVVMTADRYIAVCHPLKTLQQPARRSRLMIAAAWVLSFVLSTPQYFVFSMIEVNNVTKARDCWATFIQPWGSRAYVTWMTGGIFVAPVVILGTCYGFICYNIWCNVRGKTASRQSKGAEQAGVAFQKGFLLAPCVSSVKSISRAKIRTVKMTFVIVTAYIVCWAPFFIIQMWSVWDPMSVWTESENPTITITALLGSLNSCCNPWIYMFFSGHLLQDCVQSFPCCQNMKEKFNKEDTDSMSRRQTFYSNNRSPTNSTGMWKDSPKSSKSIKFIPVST

Compound | pKi hV1a
O=C1N=C(N2CCC3(CC2)OCc2ccccc23)OC12Cc1cnc(CCl)cc1C2 (stereo not drawn) [Example 57, 3-(chloromethyl)-2′-(1′H,3H-spiro[2-benzofuran-1,4′-piperidin]-1′-yl)-5,7-dihydro-4′H-spiro[cyclopenta[c]pyridine-6,5′-[1,3]oxazol]-4′-one] | 6.3
Cc1cc2c(cn1)CC1(C2)OC(N2CCC3(CC2)OCc2ccccc23)=NC1=O (stereo not drawn) [Example 58, 3-methyl-2′-(1′H,3H-spiro[2-benzofuran-1,4′-piperidin]-1′-yl)-5,7-dihydro-4′H-spiro[cyclopenta[c]pyridine-6,5′-[1,3]oxazol]-4′-one] | 7.7
O=C1N=C(N2CCC3(CC2)OCc2ccccc23)OC12Cc1cnc(CF)cc1C2 (stereo not drawn) [Example 59, 3-(fluoromethyl)-2′-(1′H,3H-spiro[2-benzofuran-1,4′-piperidin]-1′-yl)-5,7-dihydro-4′H-spiro[cyclopenta[c]pyridine-6,5′-[1,3]oxazol]-4′-one] | 7.6
O=C1N=C(N2CCC3(CC2)OCc2ccccc23)OC12Cc1cnc(C(F)F)cc1C2 (stereo not drawn) [Example 60, 3-(difluoromethyl)-2′-(1′H,3H-spiro[2-benzofuran-1,4′-piperidin]-1′-yl)-5,7-dihydro-4′H-spiro[cyclopenta[c]pyridine-6,5′-[1,3]oxazol]-4′-one] | 7.7
O=C1N=C(N2CCC3(CC2)OCc2ccccc23)OC12Cc1cnc(C(F)(F)F)cc1C2 (stereo not drawn) [Example 61, 2′-(1′H,3H-spiro[2-benzofuran-1,4′-piperidin]-1′-yl)-3-(trifluoromethyl)-5,7-dihydro-4′H-spiro[cyclopenta[c]pyridine-6,5′-[1,3]oxazol]-4′-one] | 8.5
O=C1OC2(CCN(C3=NC(=O)C4(CCCc5ccccc54)O3)CC2)c2ccccc21 (stereo not drawn) [Example 63, 1′-(4′-oxo-3,4-dihydro-2H,4′H-spiro[naphthalene-1,5′-[1,3]oxazol]-2′-yl)-3H-spiro[2-benzofuran-1,4′-piperidin]-3-one] | 6.7
O=C1OC2(CCN(C3=NC(=O)C4(CCc5ccccc5C4)O3)CC2)c2ccccc21 (stereo not drawn) [Example 65, 1′-(4′-oxo-3,4-dihydro-1H,4′H-spiro[naphthalene-2,5′-[1,3]oxazol]-2′-yl)-1′H,3H-spiro[2-benzofuran-1,4′-piperidin]-3-one] | 8.8
CC1(C)OC2(CCN(C3=NC(=O)C4(Cc5ccccc5C4)O3)CC2)c2ccc[n+]([O-])c21 [Example 70, 2′-(7,7-dimethyl-1-oxido-1′H,7H-spiro[furo[3,4-b)pyridine-5,4′-piperidin]-1′yl)-1,3-dihydro-4′H-spiro[indene-2,5′-[1,3]oxazol]-4′-one] | 7.3

Next, values leading:

pKi hV1a | Compound
8.1 | COc1cccc2c1CC1(C2)OC(N2CCC3(CC2)OC(C)(C)c2ncccc23)=NC1=O (stereo not drawn) [Example 68, 2′-(7,7-dimethyl-1′H,7H-spiro[furo[3,4-b]pyridine-5,4′-piperidin]-1′-yl)-4-methoxy-1,3-dihydro-4′H-spiro[indene-2,5′-[1,3]oxazol]-4′-one]
9.3 | CC1(C)OC2(CCN(C3=NC(=O)C4(Cc5cccc(O)c5C4)O3)CC2)c2cccnc21 (stereo not drawn) [Example 69, 2′-(7,7-dimethyl-1′H,7H-spiro[furo[3,4-b]pyridine-5,4′-piperidin]-1′-yl)-4-hydroxy-1,3-dihydro-4′H-spiro[indene-2,5′-[1,3]oxazol]-4′-one]
10.2 | CC1(C)OC2(CCN(C3=NC(=O)C4(Cc5ccccc5C4)O3)CC2)c2cc(O)cnc21 [Example 71, 2′-(3-hydroxy-7,7-dimethyl-1′H,7H-spiro[furo[3,4-b]pyridine-5,4′-piperidin]-1′-yl)-1,3-dihydro-4′H-spiro[indene-2,5′-[1,3]oxazol]-4′-one]
8.5 | CC1(C)OC2(CCN(C3=NC(=O)C4(Cc5ccccc5C4)O3)CC2)c2ccc(O)nc21 [Example 72, 2′-(2-hydroxy-7,7-dimethyl-1′H,7H-spiro[furo[3,4-b]pyridine-5,4′-piperidin]-1′-yl)-1,3-dihydro-4′H-spiro[indene-2,5′-[1,3]oxazol]-4′-one]
